The numbers were not newly measured in patent publication US12390418B2, “Biphasic compositions comprising one or both of carbonate and phosphate” (NATURAL EXTRACTION SYSTEMS, LLC, priority 2021, dated 2025), which cites them from elsewhere.

For the data set the following is noted: in water at 20 degrees Celsius.
Turning to `O=C(O)O` [bicarbonate], the “association constant for protonation (Kb)” value (from here on “association constant”) is “approximately 22 nanomolar”. Regarding phosphate, the “association constant” value is “approximately 23 millimolar”. Take `O=C(O)O` [carbonate]: the “association constant” value was “approximately 210 micromolar”. Regarding `O=P(O)(O)O` [hydrogen phosphate], the “association constant” value is recorded as “approximately 160 nanomolar”.
